# Results: patent US11213508B2, “Compositions comprising urolithins and uses thereof for the stimulation of insulin secretion” (Centre National de la Recherche Scientifique (CNRS), priority 2013, dated 2022)
# Entries after “also recorded” stand apart in the source; their conditions may differ.
# How the values were obtained:
# [1] = tested on: INS-1 insulin-secreting β-cells; assay: Glibenclamide-stimulated insulin secretion in INS-1 cells; format: cell-based; conditions: for stimulation of insulin secretion in the presence of glibenclamide: 0 to 20 μmol·L^−1
# Procedure: (§1) The insulin-secreting cell line INS-1 (a gift from Professor C. B. Wollheim) was cultured in RPMI-1640, supplemented with 10% fetal calf serum (FCS), 100 U·mL^−1 penicillin, 100 μg·mL^−1 streptomycin, 2 mmol·L^−1 L-glutamine, 10 mmol·L^−1 HEPES, 1 mmol·L^−1 sodium pyruvate, and […] 2-mercaptoethanol, as previously described by Youl et al. (2010). Cells were seeded in 24-well plates (4×10^5 cells per well) and were used for experiments after 5 days of culture.
# (§2) Before the treatment, RPMI medium was removed and the cells were washed twice with HEPES-balanced Krebs-Ringer bicarbonate buffer (KRB) containing (in mmol·L^−1): 123 NaCl, 5.4 KCl, 1.3 KH2PO4, 2.7 MgSO4, 2.9 CaCl2, 5 NaHCO3 and 20 HEPES, pH 7.5, with 2 g·L^−1 bovine serum albumin (KRB/BSA). Cells were incubated for 1 h (5% CO2, 37° C.) in KRB medium containing 8.3 mmol·L^−1 glucose (glucose-stimulated secretion) in the presence or absence of the compounds tested. At the end of the 1 h incubation period, the medium was sampled and stored at −20° C. until the insulin assay. Insulin concentration in cell supernatants was determined using the homogeneous time resolved fluorescence technology (HTRF), according to the manufacturer's instructions (HTRF insulin assay kit, Cisbio International, Bagnols-sur-Ceze, France). Briefly, two anti-insulin antibodies were used; one labelled with Eu^3+-Cryptate and one labelled with XL665 recognizing distinct epitopes. When these two fluorophores bind to insulin molecules, the two antibodies come into close proximity, allowing fluorescence resonance energy transfer (FRET) to occur between the Eu^3+-Cryptate and the XL665. This FRET increases proportionally with the insulin concentrations. All the experiments were performed at least in quadruplicate.
# (§3) Material and methods were the same as described in example 1. For the determination of insulin secretion, cells were incubated for 1 h (5% CO2, 37° C.) in KRB medium containing 1.4 mmol·L^−1 glucose (low-glucose condition) and 0.01 μmol·L^−1 glibenclamide (glibenclamide-stimulated secretion), in the presence or absence of urolithins. At the end of the 1 h incubation period, the medium was sampled and stored at −20° C. until the insulin assay. Insulin concentration in cell supernatants was determined as described in Example 1.
# [2] = tested on: INS-1 insulin-secreting β-cells; assay: Insulin secretion in INS-1 cells under low-glucose (1.4 mmol·L^−1) condition; format: cell-based; conditions: 1.4 mmol·L^−1 glucose; maximal concentration tested 20
# Procedure: as §1, §2
# as §3, with “containing either” for “containing”, “(low-glucose) or 8.3 mmol·L^−1 glucose (glucose-stimulated secretion)” for “(low-glucose condition) and 0.01 μmol·L^−1 glibenclamide (glibenclamide-stimulated secretion),”, “the compounds tested.” for “urolithins.”, “mediums were” for “the medium was”
# [3] = tested on: INS-1 insulin-secreting β-cells; assay: INS-1 cell viability (MTT) in the presence of oxidative stress (H2O2); format: cell-based; conditions: 20 μmol·L^−1 urolithin; 8.3 mmol·L^−1 glucose + H2O2
# Procedure: (§4) For protection experiments, INS-1 cells were pre-incubated with the indicated concentrations of urolithins for one hour (5% CO2, 37° C.) in RPMI medium. After two washes in HEPES-balanced Krebs-Ringer bicarbonate buffer (123 mmol·L^−1 NaCl, 5.4 mmol·L^−1 KCl, 1.3 mmol·L^−1 KH2PO4, 2.7 mmol·L^−1 MgSO4, 2.9 mmol·L^−1 CaCl2, 5 mmol·L^−1 NaHCO3 and 20 mmol·L^−1 HEPES, pH 7.5) containing 2 g·L^−1 bovine serum albumin (KRB/BSA), INS-1 cells were incubated for one hour (5% CO2, 37° C.) in KRB/BSA containing urolithins at the indicated concentrations in the presence of 1.4 mmol·L^−1 glucose (basal condition) or 8.3 mmol·L^−1 glucose (stimulant condition). When used, H2O2 (50 gmol·L^−1) was added at the beginning of the one-hour incubation period. Control experiments were performed in the basal condition, in the absence of urolithins during the pre-incubation and incubation periods.
# Cell viability was determined using the 3-(4,5-Dimethylthiazol-2-yl)-2,5-diphenyltetrazolium bromide (MTT) assay. At the end of the one-hour incubation period, cells were washed with KRB/BSA and KRB/BSA containing 5 mg/ml MTT was added to each well. Plates were then incubated for 3 h in the dark in a humidified atmosphere (5% CO2, 37° C.). Cells were washed with phosphate buffered saline (PBS) and precipitates were dissolved in 50 μl dimethyl sulfoxide (DMSO). Absorbance of the reduced intracellular formazan product was read at 492 nm on a microtiter plate reader (Tecan, Lyon, France). Experiments were performed in quadruplicate.
# [4] = tested on: INS-1 insulin-secreting β-cells; assay: Insulin secretion in INS-1 cells in the presence of oxidative stress (H2O2); format: cell-based; conditions: 8.3 mmol·L^−1 glucose + H2O2; for concentration active in preventing insulin secretion impairment induced by H2O2: lowest active concentration
# Procedure: as §2, §4
# Insulin secretion was determined as described above by measuring insulin accumulation after a one-hour incubation period.
# [5] = tested on: rat isolated perfused pancreas; assay: Insulin secretion in the rat isolated perfused pancreas; conditions: for AUC of insulin produced above the basal level: urolithins 10 μM
# Procedure: Pancreas was isolated from male Wistar rats of 250-300 g body weight under pentobarbital anaesthesia (60 mg/kg i.p.). Previously described technique (Cadene et al., 1996) was used to isolate the pancreas from neighboring tissues. The organ was then transferred into a plastic chamber maintained at 37.5° C. Perfusion medium was Krebs-Ringer bicarbonate buffer containing 2 g/l bovine serum albumin and 5 mmol·L^−1 (non stimulant condition) or 8.3 mmol·L^−1 (stimulant condition) glucose, and continuously bubbled with a mixture of 95% O2/5% CO2. Infusion pressure was selected to provide a pancreatic outflow of 2.5 ml/min. The first sample was taken 30 min after initiation of perfusion to allow for an adaptation period. Two additional control samples were collected 10 and 15 min later, immediately followed by switching to the same buffer containing urolithins (10 μmol·L^−1). Pancreatic effluents were then collected at the following times (minutes): 17, 18, 19, 20, 21, 27, 32, 42. Pancreas was then washed using the same buffer in the absence of urolithin. Two additional samples were taken 5 and 15 min after urolithin withdrawal.
# All samples were collected for 1 min allowing determinations of pancreatic effluent output, and immediately frozen for insulin assay (Cisbio HTRF method). Insulin output rate (ng/min) was calculated by multiplying the hormone concentration (ng/ml) in the effluent by the corresponding flow rate (ml/min).
# Amplitude of stimulation of insulin secretion by urolithins was estimated by calculating the Area Under the Curve (AUC) of insulin produced above the basal level (trapezoidal rule). Before administration of urolithins, insulin secretion levels were 3.39±0.58 ng/min (n=14 pancreases) and 67.5±7.80 ng/min (n=15 pancreases), for 5 mmol·L^−1 and 8.3 mmol·L^−1 glucose, respectively.
# [6] = 1.4 mmol·L^−1 glucose + 0.01 μmol·L^−1 glibenclamide
Structure (SMILES),stimulation of insulin secretion in the presence of glibenclamide [1],"concentration at which maximal effect was obtained [1, 6]",stimulation of insulin secretion in low-glucose condition [2],prevention of viability impairment induced by H2O2 (MTT) [3],concentration active in preventing insulin secretion impairment induced by H2O2 [4],AUC of insulin produced above the basal level [5],"maximal response, stimulation as compared to glibenclamide alone [1, 6]",insulin secretion stimulation as compared to control conditions ([4]; 20 μmol·L^−1),insulin secretion stimulation as compared to control conditions [4],"EC50 [1, 6]","stimulation of glibenclamide-induced response ([1]; urolithin 5 μmol·L^−1, 1.4 mmol·L^−1 glucose + 0.01 μmol·L^−1 glibenclamide)","effect on insulin secretion under non-stimulating glucose condition ([5]; 10 μmol·L^−1, 5 mmol·L^−1 glucose)","effect on insulin secretion under stimulating glucose condition ([5]; 10 μmol·L^−1, 8.3 mmol·L^−1 glucose)",lowest concentration inducing some stimulation of insulin secretion ([5]; stimulating glucose condition)
"O=c1oc2cc(O)ccc2c2ccc(O)cc12 [Urolithin A, urolithin A]",concentration-dependently stimulated insulin secretion,5 µmol/L,did not significantly stimulate insulin secretion; also recorded: does not stimulate insulin secretion,no effect,20 µM,2609.5 ng insulin secreted for 32 min,–,–,–,–,–,–,–,–
"O=c1oc2cc(O)ccc2c2ccccc12 [Urolithin B, urolithin B]",concentration-dependently stimulated insulin secretion,–,induced some stimulation,partially active,5 µM,142.0 ng insulin secreted for 32 min,130%,200%,150%,–,–,–,–,–
"O=c1oc2cc(O)ccc2c2cc(O)c(O)cc12 [Urolithin C, urolithin C]",concentration-dependently stimulated insulin secretion,–,induced some stimulation,totally prevent viability impairment,5 µM,9160.0 ng insulin secreted for 32 min,about 200%,200%,–,~5 µM,about 150%,had no effect,induced a major amplification,1 µM
"O=c1oc2c(O)c(O)ccc2c2cc(O)c(O)cc12 [Urolithin D, urolithin D]",concentration-dependently stimulated insulin secretion,–,induced some stimulation,totally prevent viability impairment,5 µM,387.5 ng insulin secreted for 32 min,–,–,–,–,–,–,–,–
